Here are results for six compounds from patent publication US7902361B2, “Pyrimidin-4-yl-3, 4-thione compounds and their use in therapy” (Cyclacel Limited, priority 2003, dated 2011).

SMILES strings stand for the structures. Read-outs that look alike come from different tables or passages of the source. Marks after values point to notes of the source that are not given here.

One experiment addresses CDK9/cyclin T1 (Homo sapiens, UniProt P50750). In words: Kinase assay CDK9/cyclin T1. Format: biochemical. Particulars: Ki calculated (Cheng-Prusoff) from experimentally determined IC50 and Km,ATP; read-out: Kinase Inhibition Ki CDK9 - cyclin T1. The procedure, abridged:
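Radiometric filter assays used recombinant kinases or complexes (2-4 μg) with appropriate polypeptide substrates in pH 7.4 β-glycerophosphate/MOPS buffer. Reactions were started with 15 mM MgCl2 and 100 μM ATP containing [γ-32P]-ATP and run at 30° C. Phosphate incorporated into substrate was counted by scintillation after washing.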

A further experiment deals with glycogen synthase. In words: Glycogen synthase activation in HEK293 cells. Format: cell-based. To be noted: for Max FI (% to LiCl): maximum fold induction normalised to 40 mM LiCl. As for the experimental part:
HEK293 cells, mouse adipocytes or rat myotubes were treated in 10-cm Petri dishes with different concentrations of GSK3 inhibitor example compounds for 90 minutes. At the end of the treatment period the cells were washed and scraped in ice cold PBS buffer supplemented with 20 mM NaF. The cells were pelleted by centrifugation and lysed in 300 μL buffer (50 mM.HEPES pH 7.5, 10 mM EDTA, 100 mM NaF, 5 mM DTT, protease inhibitor cocktail (Sigma)). After incubation for 30 min on ice the samples were cleared by centrifugation. The activity of glycogen synthase was determined in the soluble fraction at two different concentrations of […]—low (0.1 mM) and high (10 mM). The reaction was carried out for 30 min (buffer: 50 mM Tris pH 7.8, 20 mM EDTA, 25 mM NaF, 5 mM DTT). The reaction mixture (total volume of 90 μL) contained 1% glycogen, 0.3 mM UDP-glucose and 0.06 μCi ^14C-UDP-glucose. Reaction was stopped by transfer of 70 μL to a GFC 96-well filter plate, containing 140 μL 100% ethanol and the glycogen was allowed to precipitate for 1 h at 4° C. The wells were washed 2 times with 200 μL 66% ethanol and than allowed to dry. Subsequently, 100 μL of scintillation liquid was added, and plates were sealed and counted in a Packard Topcounter. Glycogen synthase activation was calculated as the ratio between the incorporation of labelled ^14C-UDP-glucose in glycogen at low and high concentration of […] (fractional velocity).
The ability of GSK3 inhibitors to activate glycogen synthase was determined in HEK293 cells, mouse adipocytes and rat myotubed. The compounds tested activated glycogen synthase in all three cellular systems with EC50 values in the sub-micromolar to low micromolar concentration range. Most of them exceeded the stimulation induced by 40 mM LiCl (the highest compound concentration used in the assay was 20 μM).

For a further experiment, the target named is T1, GSK3α (Homo sapiens, UniProt P49840).
T1 construct: purchased Upstate
Kind of experiment: GSK3α in vitro kinase assay. The experiment is classed as biochemical. To be noted: recombinant human GSK3α, 100 μM ATP. As for the experimental part:
Both isoforms of GSK3 (α and β) are involved in the regulation of glycogen synthase activity—key enzyme in the glycogen metabolism. The inhibitory potency of example compounds was determined using in vitro kinase assays with recombinant human GSK3-α and -β; the IC50 values determined are presented in Table 9.
A 10-point titration was set up to determine the IC50 values of selected example compounds against GSK3β. Assays were performed using 96-well microtiter plates with a final volume of 25 μL per well. Each assay contained 1.5 units of GSK3β(New England Biolabs), 200 μM CREB phosphopeptide ([…]pSYR, Alta Biosciences), 20 mM Tris HCl pH7.5, 5 mM DTT, 15 mM MgCl2 supplemented with 100 μM ATP and 0.5 μCi of [γ-^32P] ATP plus or minus inhibitor in 2% DMSO. Assays were carried out for 30 minutes at 30° C. before stopping the reaction by the addition of an equal volume of 75 mM aqueous phosphoric acid. Samples were then spotted onto a p81 filterplate (Whatman) and a vacuum was applied. Wells were washed 3 times with 200 μL of dilute aqueous phosphoric acid before the addition of 50 μL Microscint 40 per well. Incorporation of radioactivity was determined on a Topcount microplate scintillation counter (Packard).
GSK3α (Upstate) was assayed exactly as described above except that 1 ng of enzyme was added per assay point.

A short description of experiment [1]: Oral glucose tolerance in male ZDF fa/fa rats. Particulars: for % Glucose Decrease AUC (−270–180 min) / % Glucose decrease-AUC (0–180 min): ZDF fa/fa rats, oral glucose tolerance, 30 mg/kg per os twice (−270 and −30 min). The experiment is classed as in vivo, rat. The procedure: The ability of example compounds of the present invention to improve glucose metabolism was tested in 12-13 week old male ZDF fa/fa rats. The test animals (10-15 mmol/L fasting glucose level) were dosed twice at 30 mg/kg and the glucose challenge was given at time 0. […] Most of these blood levels were below the EC50 values determined in cellular assays.
12-13 weeks old male ZDF fa/fa rats were used to study the effect of example compounds on oral glucose tolerance. […] Body weight was recorded three times per week. Test compounds were dissolve in a formulation of 10% DMSO, 5% Tween, 5% Span 20, 30% PEG 400 and 50% water (v/v) to provide final solutions at 5 mg/mL concentration. Each experimental group contained 7 animals. After an 16 h overnight fast the test compounds were administered at 30 mg/kg per os twice (at −270 min and −30 min) before the oral glucose tolerance test was commenced (2 g glucose/kg per os as a 40% solution introduced via feeding tube). A control group was dosed in a similar manner with the vehicle only. Blood sampling for blood glucose measurement (20 μL blood) was performed at −270, 0, 15, 30, 60, 90, 120 and 180 min. Mixed venous blood was collected from the tail vein into 20-μL glass capillaries, which were placed in a standard tube filled with 1 mL solution for hemolysis. Glucose levels were measured using the glucose oxidase procedure (Super G Glukosemessgeraet; Dr Mueller Geraetebau, Freital, Germany). In addition, 50 μL blood samples were taken at 30 and 60 min after the glucose dose, placed in heparinized tubes, which were then frozen immediately in liquid nitrogen. The bioanalytical method used employed isocratic elution liquid chromatography—tandem mass spectrometry in electrospray positive ion multiple reaction monitoring mode.

Another experiment addresses T2, GSK3β (Homo sapiens, UniProt P49841).
T2 construct: purchased New England Biolabs
In words: GSK3β in vitro kinase assay. The experiment is classed as biochemical. To be noted: recombinant human GSK3β, 100 μM ATP. The procedure, abridged:
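Radiometric filter-binding assay with GSK3β (1.5 units), 200 μM CREB phosphopeptide, 100 μM ATP plus [γ-32P]ATP, in 20 mM Tris HCl pH7.5, 5 mM DTT, 15 mM MgCl2, 2% DMSO; 30 min at 30° C, stopped with phosphoric acid. 32P incorporation counted by scintillation; IC50 from 10-point titration.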

[2] abbreviates: male ZDF fa/fa rats, 30 mg/kg per os twice, oral glucose tolerance test.

T2 sequence (P49841 whole entry): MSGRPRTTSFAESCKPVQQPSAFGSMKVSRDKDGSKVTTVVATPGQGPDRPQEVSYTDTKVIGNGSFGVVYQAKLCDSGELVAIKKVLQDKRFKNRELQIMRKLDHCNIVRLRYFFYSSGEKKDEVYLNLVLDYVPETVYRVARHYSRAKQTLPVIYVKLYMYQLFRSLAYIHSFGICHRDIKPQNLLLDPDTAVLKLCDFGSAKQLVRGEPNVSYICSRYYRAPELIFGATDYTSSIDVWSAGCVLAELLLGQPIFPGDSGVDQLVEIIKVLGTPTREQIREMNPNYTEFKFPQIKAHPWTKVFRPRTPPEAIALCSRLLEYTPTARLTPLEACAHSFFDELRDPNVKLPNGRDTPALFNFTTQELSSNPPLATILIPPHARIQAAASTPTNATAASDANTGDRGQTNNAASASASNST
CDK9/cyclin T1, sequence (P50750 whole entry, species assumed): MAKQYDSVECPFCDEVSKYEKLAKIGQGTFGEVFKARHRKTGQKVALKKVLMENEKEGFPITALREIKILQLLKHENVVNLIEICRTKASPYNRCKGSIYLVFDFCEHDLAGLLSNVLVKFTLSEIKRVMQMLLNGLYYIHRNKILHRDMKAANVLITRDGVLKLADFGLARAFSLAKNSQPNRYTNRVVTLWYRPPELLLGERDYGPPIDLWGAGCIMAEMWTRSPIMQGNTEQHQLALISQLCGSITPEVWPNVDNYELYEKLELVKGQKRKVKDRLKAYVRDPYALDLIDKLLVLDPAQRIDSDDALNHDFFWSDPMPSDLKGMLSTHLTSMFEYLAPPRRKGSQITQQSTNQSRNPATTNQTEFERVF
CDK9/cyclin T1, sequence (O60563 whole entry partner, species assumed): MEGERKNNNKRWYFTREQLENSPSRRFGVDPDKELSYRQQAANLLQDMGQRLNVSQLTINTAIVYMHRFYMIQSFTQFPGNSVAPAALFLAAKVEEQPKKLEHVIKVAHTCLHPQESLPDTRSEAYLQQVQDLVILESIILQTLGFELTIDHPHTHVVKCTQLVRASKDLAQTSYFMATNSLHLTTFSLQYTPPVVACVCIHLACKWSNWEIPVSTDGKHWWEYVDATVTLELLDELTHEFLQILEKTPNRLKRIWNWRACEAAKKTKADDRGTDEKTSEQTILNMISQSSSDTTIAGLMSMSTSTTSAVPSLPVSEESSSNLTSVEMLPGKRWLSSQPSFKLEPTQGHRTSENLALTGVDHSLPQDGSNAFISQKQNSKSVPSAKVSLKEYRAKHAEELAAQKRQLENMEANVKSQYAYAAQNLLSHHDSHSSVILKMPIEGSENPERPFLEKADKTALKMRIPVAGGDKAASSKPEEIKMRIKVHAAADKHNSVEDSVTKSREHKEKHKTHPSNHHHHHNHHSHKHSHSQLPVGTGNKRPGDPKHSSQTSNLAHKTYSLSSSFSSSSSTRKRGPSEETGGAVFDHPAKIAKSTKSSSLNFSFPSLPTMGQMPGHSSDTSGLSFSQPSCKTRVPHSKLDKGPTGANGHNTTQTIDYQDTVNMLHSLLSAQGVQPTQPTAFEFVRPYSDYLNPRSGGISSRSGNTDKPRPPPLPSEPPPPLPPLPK
T1 sequence (P49840 whole entry): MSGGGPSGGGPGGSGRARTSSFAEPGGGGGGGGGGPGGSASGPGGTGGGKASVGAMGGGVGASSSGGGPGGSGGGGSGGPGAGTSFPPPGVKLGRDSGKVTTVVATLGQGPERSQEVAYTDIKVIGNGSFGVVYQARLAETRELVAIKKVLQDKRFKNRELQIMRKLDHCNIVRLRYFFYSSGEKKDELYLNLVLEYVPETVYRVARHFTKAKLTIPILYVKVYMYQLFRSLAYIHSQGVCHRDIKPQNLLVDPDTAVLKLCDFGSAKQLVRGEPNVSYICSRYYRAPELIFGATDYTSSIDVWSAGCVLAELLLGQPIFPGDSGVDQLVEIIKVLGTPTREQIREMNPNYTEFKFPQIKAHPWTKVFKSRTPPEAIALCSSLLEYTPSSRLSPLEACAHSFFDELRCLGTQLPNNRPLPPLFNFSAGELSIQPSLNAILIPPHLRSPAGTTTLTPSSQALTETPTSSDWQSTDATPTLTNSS

Take `Cc1c(-c2ccnc(Nc3cccc(S(=O)(=O)NCCO)c3)n2)sc(=O)n1C` [Compound 75, 3-[4-(3,4-Dimethyl-2-oxo-2,3-dihydro-thiazol-5-yl)-pyrimidin-2-ylamino]-N-(2-hydroxy-ethyl)-benzenesulfonamide]: the Ki on CDK9/cyclin T1 is 9.5 nM. Moreover, the EC50 in the experiment on glycogen synthase (Homo sapiens) is 5170 ± 2200 nM. Moreover, in the experiment with glycogen synthase, the “Max FI (% to LiCl)” value is given as 108 % to LiCl. Also, the concentration for half-maximal inhibition (IC50) at GSK3α amounted to 31 nM. Further, in experiment [1], the “% Glucose Decrease AUC (−270–180 min)” value is 13% and the “% Glucose decrease-AUC (0–180 min)” value was found to be 6.4%. Also, the IC50 on GSK3β was found to be 25 nM.

As to `CC(=O)Nc1cc(Nc2nccc(-c3sc(=O)n(C)c3C)n2)cc(C(F)(F)F)c1` [Compound 64, N-{3-[4-(3,4-Dimethyl-2-oxo-2,3-dihydro-thiazol-5-yl)-pyrimidin-2-ylamino]-5-trifluoromethyl-phenyl}-acetamide], at CDK9/cyclin T1, the Ki was 5.7 nM. The compound also had an EC50 in the experiment on glycogen synthase (Homo sapiens) of 49 ± 70 nM. In the experiment with glycogen synthase, the “Max FI (% to LiCl)” value was 107 % to LiCl. The IC50 on GSK3α was found to be 2.4 nM; on GSK3β, 3 nM. Moreover, the “% Glucose Decrease AUC (−270–180 min)” value in experiment [1] stood at 9%. In addition, in experiment [1], the “% Glucose decrease-AUC (0–180 min)” value is on record as 8%. For the same compound, the “glucose AUC” value in experiment [1] (setting [2]) is “moderate decrease”.

For `Cc1c(-c2ccnc(Nc3cc(Br)cc(C(F)(F)F)c3)n2)sc(=O)n1C` [Compound 68, 5-[2-(3-Bromo-5-trifluoromethyl-phenylamino)-pyrimidin-4-yl]-3,4-dimethyl-3H-thiazol-2-one], at CDK9/cyclin T1, the Ki is 140 nM. This compound also came in with an EC50 in the experiment on glycogen synthase (Homo sapiens) of 8340 ± 1880 nM. Moreover, the “Max FI (% to LiCl)” value with glycogen synthase is on record as 96 % to LiCl. Also, the IC50 on GSK3α was 136 nM. Also, in experiment [1], the “% Glucose Decrease AUC (−270–180 min)” value is 5% and the “% Glucose decrease-AUC (0–180 min)” value is given as 8.4* %. Also, in experiment [1] (setting [2]), the “decreased blood glucose levels” value is “statistically significant” and the “glucose AUC” value is “moderate decrease”. Also, at GSK3β, the IC50 is 61 nM.

Regarding `COCCNS(=O)(=O)c1cccc(Nc2nccc(-c3sc(=O)n(C)c3C)n2)c1` [Compound 67, 3-[4-(3,4-Dimethyl-2-oxo-2,3-dihydro-thiazol-5-yl)-pyrimidin-2-ylamino]-N-(2-methoxy-ethyl)-benzenesulfonamide], the Ki on CDK9/cyclin T1 is 4.8 nM. Also, the midpoint of the response with glycogen synthase (Homo sapiens), the EC50, lay at 3720 ± 2500 nM. The “Max FI (% to LiCl)” value in the experiment on glycogen synthase is on record as 85 % to LiCl. Further, the IC50 at GSK3α was determined as 17.8 nM. Moreover, in experiment [1], the “% Glucose Decrease AUC (−270–180 min)” value stood at 14% and the “% Glucose decrease-AUC (0–180 min)” value worked out at 7.5%. Moreover, the “glucose AUC” value in experiment [1] (setting [2]) was “moderate decrease”. The IC50 at GSK3β came to 23 nM.

In the case of `CNc1cc(Nc2nccc(-c3sc(=O)n(C)c3C)n2)cc(C(F)(F)F)c1` [Compound 76, 3,4-Dimethyl-5-[2-(3-methylamino-5-trifluoromethyl-phenylamino)-pyrimidin-4-yl]-3H-thiazol-2-one], the Ki at CDK9/cyclin T1 was 21 nM. In the experiment on glycogen synthase, a half-maximal effect (EC50) was put at 444 ± 178 nM and the “Max FI (% to LiCl)” value is given as 88 % to LiCl. Further, the IC50 at GSK3α was 42 nM. For the same compound, in experiment [1], the “% Glucose Decrease AUC (−270–180 min)” value worked out at 0% and the “% Glucose decrease-AUC (0–180 min)” value came to 0.5%. The IC50 on GSK3β was 18.9 nM.

Consider `CCNS(=O)(=O)c1cccc(Nc2nccc(-c3sc(=O)n(C)c3C)n2)c1` [Compound 62, 3-[4-(3,4-Dimethyl-2-oxo-2,3-dihydro-thiazol-5-yl)-pyrimidin-2-ylamino]-N-ethyl-benzenesulfonamide], for which the Ki at CDK9/cyclin T1 is 4.8 nM. This compound gave an EC50 in the experiment with glycogen synthase (Homo sapiens) of 684 ± 133 nM. For the same compound, the “Max FI (% to LiCl)” value in the experiment with glycogen synthase is 117 % to LiCl. The IC50 on GSK3α turned out to be 27 nM. Also, in experiment [1], the “% Glucose Decrease AUC (−270–180 min)” value came out at 9% and the “% Glucose decrease-AUC (0–180 min)” value was determined as 3.6%. Further, the IC50 at GSK3β was 22 nM.

As usually defined, the Ki is the dissociation constant of the complex between target and ligand, obtained from inhibition or displacement. For orientation: EC50 means the concentration needed to bring the measured effect to its halfway point. Low values mean a more potent agent, high ones a less potent agent. As usually defined, the IC50 is the concentration at which inhibition is half-maximal.
